A short description of this assay: Test as antiagglomerant (agglomerate inhibition) in stirred steel autoclave. Conditions: 5 000 ppm additive based on aqueous phase; water and white spirit 1:2; gas 1, 90 bar; 2° C. for 25 hours.

Structures are written as SMILES.

Method: To investigate the inhibiting action of the compounds according to the invention, a stirred steel autoclave having temperature control, pressure and torque sensor having an internal volume of 450 ml was used. For investigations of kinetic inhibition, the autoclave was filled with distilled water and gas in a volume ratio of 20:80, and, for investigations of agglomerate inhibition, condensate was additionally added. Finally, natural gas was injected at different pressures.
Starting from a starting temperature of 17.5° C., the autoclave was cooled to 2° C. within 2 h, then stirred at 2° C. for 18 h and heated back up to 17.5° C. within 2 h. An initial pressure decrease corresponding to the thermal compression of the gas is observed. When the formation of gas hydrate nuclei occurs during the supercooling time, the pressure measured falls, and an increase in the torque measured and a slight increase in temperature can be observed. Without inhibitor, further growth and increasing agglomeration of the hydrate nuclei lead rapidly to a further increase in the torque. When the mixture is heated, the gas hydrates decompose, so that the starting state of the experimental series is attained.
On the other hand, the torque measured in the autoclave serves as a parameter for the agglomeration of the hydrate crystals. The pressure drop measured (Δp) allows a direct conclusion on the amount of hydrate crystals formed.
Gas 1: 79.3% methane, 10.8% ethane, 4.8% propane, 1.9% butane, 1.4% carbon dioxide, 1.8% nitrogen. Supercooling below the equilibrium temperture of hydrate formation at 50 bar: 12° C.
In order to test the effectiveness as agglomerate inhibitors, the test autoclave used above was initially charged with water and white spirit (20% of the volume in a ratio of 1:2) and, based on the aqueous phase, 5 000 ppm of the particular additive were added. At an autoclave pressure of 90 bar using gas 1 and a stirrer speed of 5 000 rpm, the temperature was cooled from initially 17.5° C. within 2 hours to 2° C., then the mixture was stirred at 2° C. for 25 hours and heated again. The pressure drop caused by hydrate formation and the resulting torque at the stirrer, which is a measure of the agglomeration of the gas hydrates, were measured.

Consider `CCCCC(CC)COC(=O)COCC[N+](C)(CCOCC(=O)OCC(CC)CCCC)C1CCCC1.COS(=O)(=O)[O-]` (stereo not drawn) [Example 46], for which the “Pressure drop Δ p” value came out at 15.1 bar, the “Temperature rise Δ T” value stood at 0.3 K and the “Torque Mmax” value came out at 0.3 Ncm.
The matching figures for `CCCCC(CC)COC(=O)COCC[N+](C)(CCOCC(=O)OCC(CC)CCCC)C1CCCCC1.COS(=O)(=O)[O-]` (stereo not drawn) [Example 48]: 15.3 bar, 0.7 K and 0.4 Ncm.
Regarding `CCCCC(CC)COC(=O)COCC[N+](C)(CCCC)CCOCC(=O)OCC(CC)CCCC.COS(=O)(=O)[O-]` (stereo not drawn) [Example 50], the “Pressure drop Δ p” value turned out to be 10.1 bar, the “Temperature rise Δ T” value is 0.1 K and the “Torque Mmax” value turned out to be 0.2 Ncm.

Values taken from patent US8034748B2, “Additives for inhibiting the formation of gas hydrates” (Clariant Produkte (Deutschland) GmbH, priority 2001, dated 2011).
